Results published in patent US8642350B2, “Sensor material and uses thereof to simultaneously sense two analytes: oxygen and pH or acidic/basic gaseous ions” (University College Cork, National University of Ireland, …, priority 2010, dated 2014).

Columns and labels:
Format in all cases: physicochemical
[1] = Absorption and emission spectra of thin film sensor coatings; settings: solid state sensor form
Description: On the other hand, protonation of the peripheral group (Schiff base) leads to the formation of a delocalised carbocation represented by 10 resonant structures. This process is accompanied by major spectral changes: a shift in absorbance peak from 398 nm to 443 nm and the disappearance of the porphyrin type of electronic spectra and phosphorescence. The process is reversible and potentially allows for sensing of the protonation or pH changes by means of absorbance or phosphorescence measurements.
(§1) This cocktail of sensor components was applied in 2 μl aliquots on a solid support (e.g. Mylar® foil or microporous polymeric membrane) and left to evaporate all the solvents. […] Other sensor formulations can also be used, such formulations are known to specialists in the area.
(§2) Thin film (˜5 μm) sensor coatings produced according to Table 1 were studied for their photophysical, O2 and pH sensing properties.

[2] = pH calibration (pKa) of solid state sensors by absorbance / phosphorescence intensity; settings: for pH range covered by the sensor: air-saturated buffer; for pKa value (21% O2) 0 mM NaCl / pKa value (21% O2) 500 mM NaCl: solid state sensor form
Description: (§3) FIG. 2: Oxygen calibration in the phosphorescence lifetime (A) and Stern-Volmer (right) scales for the Pt-OEP-CH═N—CH3 (♦) and Pd-OEP-CH═N—CH3 (▪) sensors, measured in sodium acetate, pH 6 at 24° C. (B). pH calibration of Pt-OEP-CH═N—CH3 (absorbance) at certain pH steps, the two black bars show the bandwidth of commercial LEDs at 400 nm and 450 nm (C) and of Pt-OEP-CH═N—CH3 (♦) and Pd-OEP-CH═N—CH3 (▪) at 24° C. and 30° C. respectively (emission intensity) (D), measured in sodium acetate.
as §1, §2
With respect to their pH sensitivity, the two sensors produced the anticipated spectral responses which occurred in the useful range of pH. […] However, the decrease in phosphorescence intensity signal occurred without any significant changes in the phosphorescence lifetime.

[3] = Oxygen calibration by phosphorescence lifetime (quenching by dissolved O2); settings: for quenching by dissolved O2: sensors in aqueous solutions, 0-21 kPa O2; for Lifetime 0% O2 / Lifetime 21% O2: solid state sensor form; for Lifetime 0% O2: 0% O2, 24° C.; for Lifetime 21% O2: 21% O2, 24° C.
Description: as §3, §1, §2
The unquenched phosphorescence lifetime of 70 μs in O2-free buffer (at 24° C.) was close to that of the other Pt-porphyrins and O2 sensors on their basis. In air-saturated solution (20.9 kPa or 250 μM) the lifetime was reduced by approximately 60%. […] Full O2 calibrations of the two sensors show a pronounced non-linearity of Stern-Volmer plots (in FIG. 2B).

Emission [1] | Absorption ([1]; pH 2.0) | Absorption ([1]; pH 8.0) | pH range covered by the sensor ([2]; 24° C.) | pH range the dual-analyte sensor is well suited for ([2]; physiological range) | pKa value (21% O2) 0 mM NaCl ([2]; 24° C.) | pKa value (21% O2) 0 mM NaCl ([2]; 30° C.) | pKa value (21% O2) 500 mM NaCl ([2]; 24° C.) | pKa value (21% O2) 500 mM NaCl ([2]; 30° C.) | cross-sensitivity of O2 response to pH ([3]; phosphorescence lifetime modality) | O2 range the dual-analyte sensor is well suited for ([3]; physiological range) | unquenched lifetime ([3]; sensor, unquenched) | quenching by dissolved O2 [3] | Lifetime 0% O2 [3] | Lifetime 21% O2 [3] | pKa more acidic than the Pd-OEP-CH═N—CH3 sensor ([2]; difference between the two sensors) | reduction of lifetime in air-saturated solution ([3]; air-saturated solution (20.9 kPa or 250 μM O2)) | unquenched phosphorescence lifetime ([3]; sensor in O2-free buffer, 24° C.) | Structure (SMILES)
673 nm | 443 (pH 2.0) nm | 398 (pH 8.0) nm | 6.5-8.0 | 6-8 | 5.9 (24° C.) | 6.9 (30° C.) | 5.5 (24° C.) | 6.5 (30° C.) | no cross-sensitivity to pH | 0 to 200 µM | 147 µs | more favorable quenchability | 172 (24° C.) μs | 33 (24° C.) μs |  |  |  | CN=CC1=C2N=C(C=c3c(C)c(CCC(=O)OC)c4[n]3[Pd][n]3c(c(C)c(CCC(=O)OC)c31)C=C1N=C(C=4)C(C)=C1CCC(=O)OC)C(CCC(=O)OC)=C2C [Pd—CPE—CH═NMe]
670 nm | 443 (pH 2.0) nm | 398 (pH 8.0) nm | 5-7 |  | 4.3 (24° C.) | 5.9 (30° C.) |  | 5.5 (30° C.) |  |  |  | moderate quenching | 60 (24° C.) μs | 36 (24° C.) μs | ~1 pH unit | approximately 60% | 70 μs | CCC1=C(CC)c2cc3[n-]c(c(C=NC)c4nc(cc5[n-]c(cc1n2)c(CC)c5CC)C(CC)=C4CC)c(CC)c3CC.[Pt+2] [Pt—OEP—CH═NMe]
